Measured values taken from US8247211B2, “Glycopeptide antibiotics” (American Cyanamid Company, priority 2001, dated 2012).

Columns and labels:
Test in all cases: In vitro antibacterial evaluation: minimum inhibitory concentration (MIC), broth dilution method
Type in all cases: cell-based
Conditions in all cases: 18 hours at 35° C.
[1] = system: Enterococcus sp.
Procedure, shortened: (§1)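 First, organisms are seeded at 5×10^5 CFU/mL into Muller-Hinton II […]. Next, antibiotic is applied across 64-0.06 μg/mL by broth dilution (NCCLS M7-A2). Finally, the lowest inhibitory concentration is recorded as MIC.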

[2] = system: Streptococcus sp.
Procedure, shortened: as §1

[3] = system: Escherichia coli
Procedure, shortened: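 Values are minimum inhibitory concentrations, meaning the smallest antibiotic concentration that stops growth of the organism. They come from broth dilution in Muller-Hinton II […] per NCCLS guidance (M7-A2), using 5×10^5 CFU/mL and concentrations from 64 to 0.06 μg/mL.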

[4] = system: Staphylococcus sp.
Procedure, shortened: as §1

α-O-[(Dodecylanaino)carbonyl]-cyclo[glycyl-β-methylphenylalanyl-O-(4-O-hexopyranosylhexopyranosyl)tyrosyl-3-(2-iminoimidazolidin-4-yl)seryl-3-(3-hexopyranosyl-2-iminoimidazoliclin-4-yl)serylseryl] [Example 254]
8 µg/mL: MIC Enterococcus faecalis (ATCC 29212) ([1]; Enterococcus faecalis (ATCC 29212)) | MIC Enterococcus faecalis (GC 2242) ([1]; Enterococcus faecalis (GC 2242)) | MIC Enterococcus faecalis (GC 4552) ([1]; Enterococcus faecalis (GC 4552)) | MIC Enterococcus faecalis (GC 4554) ([1]; Enterococcus faecalis (GC 4554)) | MIC Enterococcus faecium (GC 4556) ([1]; Enterococcus faecium (GC 4556)) | MIC Enterococcus faecalis (ATCC 29212) ([1]; broth dilution, strain ATCC 29212) | MIC Enterococcus faecalis (GC 2242) ([1]; broth dilution, strain GC 2242) | MIC Enterococcus faecalis (GC 4552) ([1]; broth dilution, strain GC 4552) | MIC Enterococcus faecalis (GC 4554) ([1]; broth dilution, strain GC 4554) | MIC Enterococcus faecium (GC 4556) ([1]; broth dilution, strain GC 4556) | MIC Streptococcus pyogenes (ID-3187) ([2]; Streptococcus pyogenes (ID-3187)) | MIC Streptococcus pyogenes (ID-3187) ([2]; broth dilution, strain ID-3187) | MIC Escherichia coli (GC 4559) ([3]; Escherichia coli (GC 4559)) | MIC Staphylococcus aureus (GC 4545) ([4]; Staphylococcus aureus (GC 4545)) | MIC Staphylococcus aureus (GC 4545) ([4]; broth dilution, strain GC 4545)
2 µg/mL: MIC Enterococcus faecium (GC 4557) ([1]; Enterococcus faecium (GC 4557)) | MIC Enterococcus faecium (GC 4557) ([1]; broth dilution, strain GC 4557) | MIC Coagulase Negative Staphylococcus (GC 4549) ([4]; Coagulase Negative Staphylococcus (GC 4549)) | MIC Coagulase Negative Staphylococcus (ID-3941) ([4]; Coagulase Negative Staphylococcus (ID-3941)) | MIC Coagulase Negative Staphylococcus (GC 4549) ([4]; broth dilution, strain GC 4549) | MIC Coagulase Negative Staphylococcus (ID-3941) ([4]; broth dilution, strain ID-3941)
64 µg/mL: MIC Escherichia coli (ATCC 25922) ([3]; Escherichia coli (ATCC 25922))
4 µg/mL: MIC Enterococcus avium (GC 4558) ([1]; Enterococcus avium (GC 4558)) | MIC Enterococcus faecalis (GC 4553) ([1]; Enterococcus faecalis (GC 4553)) | MIC Enterococcus faecium (GC 2243) ([1]; Enterococcus faecium (GC 2243)) | MIC Enterococcus faecium (GC 2243) ([1]; broth dilution, strain GC 2243) | MIC Enterococcus faecalis (GC 4553) ([1]; broth dilution, strain GC 4553) | MIC Enterococcus avium (GC 4558) ([1]; broth dilution, strain GC 4558) | MIC Streptococcus agalactiae (GC 4564) ([2]; Streptococcus agalactiae (GC 4564)) | MIC Streptococcus agalactiae (GC 4564) ([2]; broth dilution, strain GC 4564) | MIC Escherichia coli (GC 4560) ([3]; Escherichia coli (GC 4560)) | MIC Coagulase Negative Staphylococcus (GC 4547) ([4]; Coagulase Negative Staphylococcus (GC 4547)) | MIC Coagulase Negative Staphylococcus (GC 4548) ([4]; Coagulase Negative Staphylococcus (GC 4548)) | MIC Coagulase Negative Staphylococcus (GC 4551) ([4]; Coagulase Negative Staphylococcus (GC 4551)) | MIC Staphylococcus aureus (ATCC 29213) ([4]; Staphylococcus aureus (ATCC 29213)) | MIC Staphylococcus aureus (GC 1131) ([4]; Staphylococcus aureus (GC 1131)) | MIC Staphylococcus aureus (GC 4541) ([4]; Staphylococcus aureus (GC 4541)) | MIC Staphylococcus aureus (GC 4542) ([4]; Staphylococcus aureus (GC 4542)) | MIC Staphylococcus aureus (GC 4544) ([4]; Staphylococcus aureus (GC 4544)) | MIC Staphylococcus aureus-SMITH (GC 4543) ([4]; Staphylococcus aureus-SMITH (GC 4543)) | MIC Staphylococcus haemolyticus (GC 4546) ([4]; Staphylococcus haemolyticus (GC 4546)) | MIC Staphylococcus aureus (ATCC 29213) ([4]; broth dilution, strain ATCC 29213) | MIC Staphylococcus aureus (GC 1131) ([4]; broth dilution, strain GC 1131) | MIC Staphylococcus aureus (GC 4541) ([4]; broth dilution, strain GC 4541) | MIC Staphylococcus aureus (GC 4542) ([4]; broth dilution, strain GC 4542) | MIC Staphylococcus aureus-SMITH (GC 4543) ([4]; broth dilution, strain GC 4543) | MIC Staphylococcus aureus (GC 4544) ([4]; broth dilution, strain GC 4544) | MIC Staphylococcus haemolyticus (GC 4546) ([4]; broth dilution, strain GC 4546) | MIC Coagulase Negative Staphylococcus (GC 4547) ([4]; broth dilution, strain GC 4547) | MIC Coagulase Negative Staphylococcus (GC 4548) ([4]; broth dilution, strain GC 4548) | MIC Coagulase Negative Staphylococcus (GC 4551) ([4]; broth dilution, strain GC 4551)
16 µg/mL: MIC Streptococcus pneumoniae (GC 4565) ([2]; Streptococcus pneumoniae (GC 4565)) | MIC Streptococcus pneumoniae (GC 4565) ([2]; broth dilution, strain GC 4565)
